Laboratory results from ChEMBL document CHEMBL4806969, “Modulators of mas-related g-protein receptor x4 and related products and methods” (2020).

Molecular target: Mas-related G-protein coupled receptor member X4 (Homo sapiens, UniProt Q96LA9)
Experiment: Antagonist activity at human MRGPRX4 expressed in HEK cells incubated in dark for 1 hr at 37 degree C and then incubated for 30 mins at room temperature in presence of […] bilirubin by HTRF assay
Type: functional, cell-based
Details: not given

Mas-related G-protein coupled receptor member X4, sequence (Q96LA9 whole entry): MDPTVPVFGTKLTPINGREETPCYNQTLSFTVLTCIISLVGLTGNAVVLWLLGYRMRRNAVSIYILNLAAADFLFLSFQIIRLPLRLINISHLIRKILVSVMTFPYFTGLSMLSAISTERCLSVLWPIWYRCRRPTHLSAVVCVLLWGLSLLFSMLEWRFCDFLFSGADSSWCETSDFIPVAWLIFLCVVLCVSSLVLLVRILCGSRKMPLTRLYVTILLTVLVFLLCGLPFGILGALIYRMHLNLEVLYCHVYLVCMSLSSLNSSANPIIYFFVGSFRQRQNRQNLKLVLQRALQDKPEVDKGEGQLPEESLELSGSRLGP

Row | Structure (SMILES) | IC50
1 | O=C(O)c1cccc(COc2ccc(OC(F)(F)F)cc2Cl)c1 | < 100 nM
2 | O=C(O)c1cccc(COc2ccc(Cl)c(Cl)c2F)c1 | < 100 nM
3 | CCOC(=O)c1cccc(COc2ccc(C(F)(F)F)cc2Cl)n1 | < 100 nM
4 | O=C(O)c1cccc(COc2ccc3ccccc3c2)n1 | < 100 nM
5 | Cc1cc(C(F)(F)F)ccc1OCc1cccc(-c2nnn[nH]2)c1 | < 100 nM
6 | O=C(O)c1cccc(COc2ccc3sccc3c2Cl)c1F | < 100 nM
7 | O=C(O)c1cc(Br)cc(COc2ccc(C(F)(F)F)cc2Cl)c1 | < 100 nM
8 | O=C(O)c1cccc(COc2ccc(Cl)cc2C(F)(F)F)c1F | < 100 nM
9 | Cc1cc(COc2ccc(Cl)c(Cl)c2Cl)nc(C(=O)O)c1 | < 100 nM
10 | O=C(O)c1cccc(CNc2ccc(C(F)(F)F)cc2Cl)c1 | < 100 nM
11 | Cc1cc(C(F)(F)F)ccc1OCc1cc(F)cc(C(=O)O)c1 | < 100 nM
12 | O=C(O)c1cccc(COc2ccc(Oc3ccccc3)cc2)c1 | > 2500 nM
13 | O=C(O)c1nc(COc2ccc(C(F)(F)F)c(Cl)c2)ccc1F | < 100 nM
14 | O=C(O)c1cccc(COc2ccc3c(c2)C(=O)CCC3)c1 | > 2500 nM
15 | O=C(O)c1cccc(Oc2ccc([N+](=O)[O-])cc2Cl)c1 | > 2500 nM
16 | O=C(O)c1cc(F)cc(COc2ccc3ccccc3c2)c1 | < 100 nM
17 | O=C(O)c1cccc(COc2ccc(OC(F)(F)F)c(Cl)c2)n1 | < 100 nM
18 | COc1ccc(C(=O)O)cc1COc1ccc(Cl)cc1Cl | > 2500 nM
19 | c1cc(COc2ccc3ccccc3c2)cc(-c2nnn[nH]2)c1 | < 100 nM
20 | Fc1ccc(COc2ccc(C(F)(F)F)cc2Cl)cc1-c1nnn[nH]1 | < 100 nM
21 | COCCCNC(=O)c1cccc(COc2ccc(C(F)(F)F)cc2Cl)c1 | < 100 nM
22 | Cc1cc(CNc2ccc(C(F)(F)F)cc2Cl)nc(C(=O)O)c1 | < 100 nM
23 | Cc1cc(OCc2cccc(C(=O)O)c2)ccc1OC(F)(F)F | > 2500 nM

Row | Structure (SMILES) | IC50
24 | O=C(O)c1cccc(COc2ccc(Cl)cc2Cl)c1F | < 100 nM
25 | O=C(O)c1cccc(COc2ccc(C(F)(F)F)cc2C(F)(F)F)c1 | < 100 nM
26 | FC(F)(F)c1ccc(OCc2cccc(-c3nnn[nH]3)c2)cc1Cl | < 100 nM
27 | FC(F)(F)Oc1ccc(OCc2cccc(-c3nnn[nH]3)c2)cc1Cl | < 100 nM
28 | Cc1cc(OCc2cccc(C(=O)O)c2)ccc1C(F)(F)F | > 2500 nM
29 | O=C(O)c1cccc(COc2cccc(C(F)F)c2)c1 | > 2500 nM
30 | N#Cc1cc(COc2ccc(OC(F)(F)F)cc2Cl)cc(C(=O)O)c1 | < 100 nM
31 | O=C(O)CNC(=O)c1cccc(COc2ccc(C(F)(F)F)cc2Cl)c1 | < 100 nM
32 | O=C(O)c1cccc(COc2ccc(C(F)(F)F)cc2Cl)n1 | < 100 nM
33 | O=C(O)c1cccc(COc2c(Cl)cccc2Cl)c1 | > 2500 nM
34 | O=C(O)c1cccc(COc2ccc3ccccc3c2)c1F | < 100 nM
35 | FC(F)(F)Oc1ccc(OCc2cccc(-c3nnn[nH]3)c2)c(Cl)c1 | < 100 nM
36 | Cc1cc(COc2ccc(C(F)(F)F)cc2C)cc(C(=O)O)c1 | < 100 nM
37 | N#Cc1cc(COc2ccc(C(F)(F)F)c(Cl)c2)cc(C(=O)O)c1 | < 100 nM
38 | Cc1ccc(OCc2cccc(C(=O)O)c2)c(Cl)c1Cl | < 100 nM
39 | O=C(O)c1cccc(COc2ccc(C(F)(F)F)cc2F)c1 | < 100 nM
40 | O=C(O)c1cc(C2CC2)cc(COc2ccc(C(F)(F)F)cc2Cl)n1 | < 100 nM
41 | O=C(O)c1cccc(COc2ccc(OC(F)(F)F)c(Cl)c2)c1 | < 100 nM
42 | O=C(O)c1nc(COc2ccc(C(F)(F)F)cc2Cl)ccc1F | < 100 nM
43 | COC(=O)c1cccc(COc2ccc(C(F)(F)F)cc2Cl)n1 | < 100 nM
44 | Cc1cc(C(F)(F)F)ccc1OCc1cc(C#N)cc(C(=O)O)c1 | < 100 nM
45 | O=C(O)c1cccc(COc2ccccc2C(F)F)c1 | > 2500 nM
46 | CC(=O)c1ccc(OCc2cccc(C(=O)O)c2)cc1 | > 2500 nM

Row | Structure (SMILES) | IC50
47 | O=C(O)c1cc(COc2ccc(C(F)(F)F)cc2Cl)ccc1F | < 100 nM
48 | O=C(O)c1cc(F)cc(COc2ccc(Cl)cc2Cl)c1 | < 100 nM
49 | Cc1cc(COc2ccc(C(F)(F)F)c(Cl)c2)cc(C(=O)O)c1 | < 100 nM
50 | O=C(O)c1cccc(COc2ccc(Cl)c(F)c2)c1 | < 100 nM
51 | O=C(O)c1cccc(COc2ccc(C(F)(F)F)cc2Cl)c1F | < 100 nM
52 | O=C(O)c1cccc(COc2ccc(Cl)cc2Cl)c1Cl | < 100 nM
53 | Fc1cc(COc2ccc(C(F)(F)F)cc2Cl)cc(-c2nnn[nH]2)c1 | < 100 nM
54 | Cc1cc(C(F)(F)F)ccc1OCc1cccc(C(=O)O)c1 | < 100 nM
55 | COC(=O)c1cccc(COc2ccc3scnc3c2)c1 | > 2500 nM
56 | Cc1cc(COc2ccc(C(F)(F)F)cc2Cl)nc(C(=O)O)c1 | < 100 nM
57 | Cc1cc(COc2ccc3ccccc3c2)nc(C(=O)O)c1 | < 100 nM
58 | CC(Oc1ccc(C(F)(F)F)cc1Cl)c1cccc(C(=O)O)c1 (stereo unspecified) | < 100 nM
59 | O=C(O)c1cccc(COc2ccc(C(F)(F)F)c(F)c2)c1 | < 100 nM
60 | CCc1cc(COc2ccc3ccccc3c2)nc(C(=O)O)c1 | < 100 nM
61 | O=C(O)c1cccc(COc2ccc(C(F)F)cc2Cl)c1 | < 100 nM
62 | Cc1cc(Cl)ccc1OCc1cccc(C(=O)O)c1F | < 100 nM
63 | O=C(O)c1cccc(COc2ccc3ccccc3c2Cl)c1F | < 100 nM
64 | N#Cc1cc(COc2ccc(C(F)(F)F)cc2Cl)cc(C(=O)O)c1 | < 100 nM
65 | O=C(O)c1cccc(COc2ccc(Cl)c(F)c2Cl)c1 | < 100 nM
66 | Fc1c(COc2ccc(C(F)(F)F)cc2Cl)cccc1-c1nnn[nH]1 | < 100 nM
67 | N#Cc1ccc(OCc2cccc(C(=O)O)c2)cc1 | > 2500 nM
68 | O=C(O)c1cccc(COc2cccc3c2OC(F)(F)O3)c1 | > 2500 nM
69 | Cc1cc(C(F)(F)F)ccc1OCc1cccc(C(=O)O)n1 | < 100 nM

Row | Structure (SMILES) | IC50
70 | Cc1noc(-c2cccc(COc3ccc(C(F)(F)F)cc3Cl)c2)n1 | < 2500 nM
71 | CCc1cc(COc2ccc(Cl)c(Cl)c2Cl)nc(C(=O)O)c1 | < 100 nM
72 | O=C(O)c1cccc(COc2ccccc2Cl)c1F | > 2500 nM
73 | O=C(O)c1cccc(COc2ccc(OC(F)(F)F)cc2Cl)c1F | < 100 nM
74 | COc1cc(COc2ccc(Cl)cc2Cl)cc(C(=O)O)c1 | < 100 nM
75 | N#CCc1ccccc1OCc1cccc(C(=O)O)c1 | > 2500 nM
76 | Cc1cc(COc2ccc(Cl)cc2Cl)cc(C(=O)O)c1 | < 100 nM
77 | O=C(O)c1cc(COc2ccc(C(F)(F)F)cc2Cl)cc(C2CC2)c1 | < 100 nM
78 | NC(=O)c1cccc(COc2cccc(Cl)c2Cl)c1 | > 2500 nM
79 | Cc1cc(COc2ccc(OC(F)(F)F)cc2Cl)cc(C(=O)O)c1 | < 100 nM
80 | COc1cc(COc2ccc(C(F)(F)F)cc2Cl)cc(C(=O)O)c1 | < 100 nM
81 | O=C(O)c1cc(Cl)cc(COc2ccc(Cl)cc2Cl)c1 | < 100 nM
82 | O=C(O)c1cccc(COc2ccc3c(c2)CCC3=O)c1 | > 2500 nM
83 | Fc1cc(OCc2cccc(-c3nnn[nH]3)c2)ccc1C(F)(F)F | < 100 nM
84 | O=C(c1ccc(COc2ccc(C(F)(F)F)cc2Cl)cc1)N1CC2(COC2)C1 | < 2500 nM
85 | COC(=O)c1cccc(COc2ccc(Cl)cc2Cl)c1 | > 2500 nM
86 | N#Cc1cc(COc2ccc(C(F)(F)F)cc2Cl)nc(C(=O)O)c1 | < 100 nM
87 | O=C(O)c1cccc(COc2ccc(F)cc2Cl)c1 | > 2500 nM
88 | O=C(O)c1cccc(COc2ccc(Cl)cc2Cl)n1 | < 100 nM
89 | O=C(O)c1cccc(NC(=O)c2cccc(COc3ccc(C(F)(F)F)cc3Cl)c2)c1 | > 2500 nM
90 | O=C(O)c1cc(Cl)cc(COc2ccc(C(F)(F)F)cc2Cl)c1 | < 100 nM
91 | CCCc1cc(COc2ccc(C(F)(F)F)cc2Cl)nc(C(=O)O)c1 | < 100 nM
92 | Cc1cc(COc2ccc3ccccc3c2)cc(C(=O)O)c1 | < 100 nM

Row | Structure (SMILES) | IC50
93 | O=C(O)c1cccc(COc2ccc(C(F)(F)F)cc2Br)c1 | < 100 nM
94 | O=C(O)c1cccc(COc2ccc(Cl)c(Cl)c2Cl)c1F | < 100 nM
95 | COC(=O)c1cccc(COc2ccc3ccccc3c2)n1 | < 100 nM
96 | O=C(O)c1c(F)ccc(COc2ccc(C(F)(F)F)cc2Cl)c1F | < 100 nM
97 | Fc1ccc(OCc2cccc(-c3nnn[nH]3)c2)c(Cl)c1 | < 100 nM
98 | Cc1cc(COc2ccc(C(F)(F)F)cc2Cl)cc(C(=O)O)c1 | < 100 nM
99 | O=C(O)Cc1cccc(COc2ccc(Cl)cc2Cl)c1 | > 2500 nM
100 | Cc1ccc(COc2ccc(Cl)cc2Cl)cc1C(=O)O | > 2500 nM
101 | O=C(O)c1cc(F)cc(COc2ccc(C(F)(F)F)cc2Cl)c1 | < 100 nM
102 | O=C(O)c1cccc(COc2ccc(C(F)(F)F)c(Cl)c2)c1F | < 100 nM
103 | CC(C)(C)c1ccccc1OCc1cccc(C(=O)O)c1 | > 2500 nM
104 | O=C(O)c1cccc(COc2ccc(OC(F)(F)F)cc2Cl)n1 | < 100 nM
105 | FC(F)(F)c1ccc(OCc2cccc(-c3nnn[nH]3)n2)c(Cl)c1 | < 100 nM
106 | O=C(O)c1cc(F)cc(COc2ccc(Cl)c(Cl)c2Cl)c1 | < 100 nM
107 | O=C(O)c1cccc(COc2ccc(C(F)(F)F)cc2)c1F | < 100 nM
108 | Cc1cc(Cl)ccc1OCc1cccc(-c2nnn[nH]2)c1 | < 100 nM
109 | N#Cc1cc(COc2ccc(Cl)c(Cl)c2Cl)cc(C(=O)O)c1 | < 100 nM
110 | O=C(O)c1cccc(CNc2ccc(C(F)(F)F)cc2Cl)n1 | < 100 nM
111 | O=C(O)c1cc(Br)cc(COc2ccc(C(F)(F)F)cc2Cl)n1 | < 100 nM
112 | O=C(O)c1cccc(COc2ccccc2Cl)c1 | > 2500 nM
113 | O=C(O)c1cccc(COc2ccc(-c3ccccc3)cc2)c1 | > 2500 nM
114 | O=C(O)c1cccc(COc2ccc(C(F)(F)F)c(Cl)c2)n1 | < 100 nM
115 | CC(C)c1ccccc1OCc1cccc(C(=O)O)c1 | > 2500 nM

Test system: not listed separately
Experiment: Half life in C57BL/6 mouse at 50 mg/kg, po measured upto 24 hrs by LC-MS/MS analysis
Type: ADME, organism-based
Details: in vivo

Row | Structure (SMILES) | half-life
116 | O=C(O)c1cccc(COc2ccc(Cl)cc2Cl)c1F | 5.9 h
117 | O=C(O)c1cccc(COc2ccc(C(F)(F)F)cc2Cl)n1 | 3.2 h
118 | Cc1cc(COc2ccc(C(F)(F)F)cc2C)cc(C(=O)O)c1 | 3.6 h
119 | O=C(O)c1cc(COc2ccc(C(F)(F)F)cc2Cl)ccc1F | 4.7 h
120 | O=C(O)c1cccc(COc2ccc(C(F)(F)F)cc2Cl)c1F | 11.2 h
121 | O=C(O)c1cccc(COc2ccc(Cl)cc2Cl)n1 | 3 h
122 | Cc1cc(COc2ccc(C(F)(F)F)cc2Cl)cc(C(=O)O)c1 | 4.6 h
123 | O=C(O)c1cc(F)cc(COc2ccc(C(F)(F)F)cc2Cl)c1 | 4.8 h

Test system: not listed separately
Experiment: AUC in C57BL/6 mouse at 50 mg/kg, po measured upto 24 hrs by LC-MS/MS analysis
Type: ADME, organism-based
Set-up: route oral, dose 50 mg/kg, time <=24
Details: in vivo

Row | Structure (SMILES) | AUC at 24 h
124 | O=C(O)c1cccc(COc2ccc(Cl)cc2Cl)c1F | 1500 µM·h
125 | O=C(O)c1cccc(COc2ccc(C(F)(F)F)cc2Cl)n1 | 880 µM·h
126 | Cc1cc(COc2ccc(C(F)(F)F)cc2C)cc(C(=O)O)c1 | 572 µM·h
127 | O=C(O)c1cc(COc2ccc(C(F)(F)F)cc2Cl)ccc1F | 1070 µM·h
128 | O=C(O)c1cccc(COc2ccc(C(F)(F)F)cc2Cl)c1F | 2150 µM·h
129 | O=C(O)c1cccc(COc2ccc(Cl)cc2Cl)n1 | 1210 µM·h
130 | Cc1cc(COc2ccc(C(F)(F)F)cc2Cl)cc(C(=O)O)c1 | 974 µM·h
131 | O=C(O)c1cc(F)cc(COc2ccc(C(F)(F)F)cc2Cl)c1 | 1040 µM·h
